Measured values from patent US12162863B2, “Modulators of stimulator of interferon genes (STING)” (RYVU THERAPEUTICS S.A., priority 2018, dated 2024).

Assays:
[1] = test system: interferon regulatory factor (IRF) pathway in THP-1 dual cells; assay: THP-1 Dual Reporter Assay, IRF pathway (luciferase reporter); type: cell-based; settings: Homo sapiens, THP1-Dual, 18 h of stimulation, luminescence
Protocol: (§1) THP-1 Dual Reporter Assay
(§2) Compounds of the present invention were tested for their activity using THP-1 dual cells (Invivogen, cat no. thpd-nfis) allowing for simultaneous study of NF-κB pathway and the interferon regulatory factor (IRF) pathway. THP-1 dual cells contain luciferase reporter gene under the control of an ISG54 (interferon-stimulated gene) minimal promoter in conjunction with five interferon-stimulated response elements and a secreted embryonic alkaline phosphatase reporter gene under the control an IFN (interferon)-β minimal promoter fused to five copies of the NF-κB consensus transcriptional response element with three copies of the c-Rel binding site. Following 18 h of stimulation with STING agonist, medium was collected and transferred onto fresh cell culture plate. To verify activity of the IRF pathway, luminescence activity was measured with standard laboratory plate reader immediately after addition 10 μl of the medium to 50 μl of luminescence reagent (Invivogen, cat. No. rep-qlc2). To verify activity of NF-κB pathway, 20 μl of the medium was mixed with 80 μl of a detection medium (Invivogen, cat. No. rep-qb2) and incubated for 2 hours at 37° C. in a humidified atmosphere containing 5% CO2. Next, absorbance at 630 nm was recorded using standard laboratory plate reader.

[2] = test system: NF-κB pathway in THP-1 dual cells; assay: THP-1 Dual Reporter Assay, NF-κB pathway (SEAP reporter); type: cell-based; settings: Homo sapiens, THP1-Dual, 18 h of stimulation, absorbance at 630 nm, read-out: THP1 Dual EC50 (μM) NFkB
Protocol: as §1, §2

human STING = human STING (Homo sapiens, UniProt Q86WV6); assay: Fluorescence Thermal Shift assay; type: binding; settings: 50 μM compound; STING 0.1 mg/ml; 20 minutes preincubation; read-out: [hSTING] FTS, ΔTm [° C.] for 50 μM
Protocol: Fluorescence Thermal Shift Assay Compounds of the present invention were tested for binding to human STING in Fluorescence Thermal Shift assay. STING was preincubated with the compounds for 20 minutes in 50 mM Hepes, 150 mM NaCl, pH 7.5 in 16 μl volume, following by adding 4 μl of SyproOrange dye dilution (ThermoFisher, cat no. S-6651). Final STING concentration was 0.1 mg/ml. Thermal unfolding was performed in Real-Time PCR QuantStudio 6 Flex System (Applied Biosystems), from 25 to 99° C., with continuous ramp mode and ramp rate 0.033° C./s. The data were analyzed using Protein Thermal Shift Software (ThermoFisher). […] For example, ΔTm [° C.] of FTS assay for following examples are: […]

human STING, sequence (Q86WV6 whole entry H232R): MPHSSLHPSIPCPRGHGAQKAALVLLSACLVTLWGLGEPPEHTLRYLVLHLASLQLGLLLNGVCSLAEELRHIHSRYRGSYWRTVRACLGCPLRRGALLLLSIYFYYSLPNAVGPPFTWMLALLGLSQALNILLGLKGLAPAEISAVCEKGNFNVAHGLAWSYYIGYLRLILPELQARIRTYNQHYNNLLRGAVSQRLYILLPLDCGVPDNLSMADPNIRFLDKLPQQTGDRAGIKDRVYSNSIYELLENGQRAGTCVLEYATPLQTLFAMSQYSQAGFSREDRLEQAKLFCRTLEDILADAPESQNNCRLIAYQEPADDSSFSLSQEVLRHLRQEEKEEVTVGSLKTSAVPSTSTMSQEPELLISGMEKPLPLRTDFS

| SMILES | EC50 [1] [µM] | EC50 [2] [µM] | ΔTm at 50 µM (human STING) [°C] |
| --- | --- | --- | --- |
| COc1ccc2c(=O)c(CN(CCCn3ccnc3)Cc3ccncc3)coc2c1 [Example 9, 3-({[3-(1H-imidazol-1-yl)propyl](pyridin-4-ylmethyl)amino}methyl)-7-methoxy-4H-chromen-4-one] | ≤ 10 | ≤ 10 | > 2.5 |
| O=c1c(CN(CCCn2ccnc2)Cc2ccncc2)coc2cc(Br)ccc12 [Example 10, 7-bromo-3-({[3-(1H-imidazol-1-yl)propyl](pyridin-4 ylmethyl)amino}methyl)-4H-chromen-4-one] | ≤ 10 | 10 to 20 | > 2.5 |
| O=c1c(CN(CCCn2ccnc2)Cc2ccncc2)coc2cc(F)ccc12 [Example 11, 7-fluoro-3-({[3-(1H-imidazol-1-yl)propyl](pyridin-4-ylmethyl)amino}methyl)-4H-chromen-4-one] | 10 to 20 | ≥ 20 | < 2.5 |
| CN1CCN(c2ccc3c(=O)c(CN(CCCn4ccnc4)Cc4ccncc4)coc3c2)CC1 [Example 12, 3-({[3-(1H-imidazol-1-yl)propyl](pyridin-4-ylmethyl)amino}methyl)-7-(4-methylpiper-azin-1-yl)-4H-chromen-4-one] | ≤ 10 | 10 to 20 | > 2.5 |
| O=c1c(CN(CCCn2ccnc2)Cc2ccncc2)coc2cc(OCc3ccccc3)ccc12 [Example 13, 7-(benzyloxy)-3-({[3-(1H-imidazol-1-yl)propyl](pyridin-4-ylmethyl)amino}methyl)-4H-chromen-4-one] | ≤ 10 | ≤ 10 | > 2.5 |
| Cc1ccc2c(=O)c(CN(CCCn3ccnn3)Cc3ccncc3)coc2c1C [Example 14, 7,8-dimethyl-3-{[(pyridin-4-ylmethyl)[3-(1H-1,2,3-triazol-1-yl)propyl]amino]methyl}-4H-chromen-4-one] | 10 to 20 | 10 to 20 | > 2.5 |
| Cc1ccc2c(=O)c(CN(CCCn3cccc3)Cc3ccncc3)coc2c1C [Example 15, 7,8-dimethyl-3-{[(pyridin-4-ylmethyl)[3-(1H-pyrrol-1-yl)propyl]amino]methyl}-4H-chromen-4-one] | ≥ 20 | ≥ 20 | < 2.5 |
| O=c1c(CN(CCCn2ccnc2)Cc2ccncc2)coc2cc(O)ccc12 [Example 16, 7-hydroxy-3-({[3-(1H-imidazol-1-yl)propyl](pyridin-4-ylmethyl)amino}methyl)-4H-chromen-4-one] | 10 to 20 | ≥ 20 | > 2.5 |
| O=c1c(CN(CCCn2cnc3ccccc32)Cc2ccncc2)coc2ccccc12 [Example 17, 3-({[3-(1H-1,3-benzodiazol-1-yl)propyl](pyridin-4-ylmethyl)amino}methyl)-4H-chromen-4-one] | ≤ 10 | 10 to 20 | > 2.5 |
| COc1cc(CN(CCCn2ccnc2)Cc2coc3ccccc3c2=O)ccn1 [Example 18, 3-({[3-(1H-imidazol-1-yl)propyl][(2-methoxypyridin-4-yl)methyl]amino}methyl)-4H-chromen-4-one] | ≥ 20 | ≥ 20 | < 2.5 |
| O=c1c(CN(CCCc2cccnc2)Cc2ccncc2)coc2ccccc12 [Example 19, 3-({[3-(pyridin-3-yl)propyl][(pyridin-4-yl)methyl]amino}methyl)-4H-chromen-4-one] | ≤ 10 | 10 to 20 | > 2.5 |
| O=c1c(CN(CCCn2ccnc2)Cc2ccncc2)coc2c3c(ccc12)CCCC3 [Example 20, 3-({[3-(1H-imidazol-1-yl)propyl](pyridin-4-ylmethyl)amino}methyl)-4H,7H,8H,9H,10-cyclohexa[h]chromen-4-one] | ≤ 10 | ≤ 10 | < 2.5 |
| O=c1c(CN(CCCc2ccncc2)Cc2ccncc2)coc2ccccc12 [Example 21, 3-({[(pyridin-4-yl)methyl][3-(pyridin-4-yl)propyl]amino}methyl)-4H-chromen-4-one] | ≤ 10 | 10 to 20 | > 2.5 |
| O=c1c(CN(CCCn2ccnn2)Cc2ccncc2)coc2cc(Br)ccc12 [Example 22, 7-bromo-3-{[(pyridin-4-ylmethyl)[3-(1H1,2,3-triazol-1-yl)propyl]amino]methyl}-4H-chromen-4-one] | 10 to 20 | ≥ 20 | < 2.5 |
| O=c1c(CN(CCCn2ccnc2)Cc2ccncc2)coc2cc(-c3ccc(F)cc3)ccc12 [Example 23, 7-(4-fluorophenyl)-3-({[3-(1H-imidazol-1-yl)propyl](pyridin-4-ylmethyl)amino}methyl)-4H-chromen-4-one] | ≥ 20 | ≥ 20 | > 2.5 |
| Cc1cc(CN(CCCn2ccnc2)Cc2coc3ccccc3c2=O)ccn1 [Example 25, 3-({[3-(1H-imidazol-1-yl)propyl][(2-methylpyridin-4-yl)methyl]amino}methyl)-4H-chromen-4-one] | 10 to 20 | ≥ 20 | < 2.5 |
| Cc1ccc2c(=O)c(CN(CCCn3ccnc3)Cc3ccnc(F)c3)coc2c1C [Example 26, 3-({[(2-fluoropyridin-4-yl)methyl][3-(1H-imidazol-1-yl)propyl]amino}methyl)-7,8-dimethyl-4H-chromen-4-one] | ≥ 20 | ≥ 20 | < 2.5 |
| COc1cc(CN(CCCn2ccnc2)Cc2coc3cc(O)ccc3c2=O)ccn1 [Example 27, 7-hydroxy-3-({[3-(1H-imidazol-1-yl)propyl][(2-methoxypyridin-4-yl)methyl]amino}methyl)-4H-chromen-4-one] | 10 to 20 | ≥ 20 | > 2.5 |
| O=c1c(CN(CCCc2cccnc2)Cc2ccncc2)coc2c1ccc1ccccc12 [Example 28, 3-({[3-(pyridin-3-yl)propyl](pyridin-4-ylmethyl)amino}methyl)-4H-benzo[h]chromen-4-one] | ≤ 10 | ≤ 10 | > 2.5 |
| O=c1c(CN(CCCn2ccnc2)Cc2ccncc2)coc2ccc(F)cc12 [Example 29, 6-fluoro-3-({[3-(1H-imidazol-1-yl)propyl][(pyridin-4-yl)methyl]amino}methyl)-4H-chromen-4-one] | ≤ 10 | 10 to 20 | > 2.5 |
| COc1cc(CN(CCCn2ccnc2)Cc2coc3c(ccc4ccccc43)c2=O)ccn1 [Example 30, 3-({[3-(1H-imidazol-1-yl)propyl][(2-methoxypyridin-4-yl)methyl]amino}methyl)-4H-benzo[h]chromen-4-one] | ≤ 10 | ≤ 10 | > 2.5 |
| Cn1cc(CN(CCCn2ccnc2)Cc2ccncc2)c(=O)c2ccccc21 [Example 31, 3-({[3-(1H-imidazol-1-yl)propyl][(pyridin-4-yl)methyl]amino}methyl)-1-methyl-1,4-dihydroquinolin-4-one] | ≥ 20 | ≥ 20 | > 2.5 |
| COc1ccc(-c2ccc3c(=O)c(CN(CCCn4ccnc4)Cc4ccncc4)coc3c2)cc1 [Example 32, 3-({[3-(1H-imidazol-1-yl)propyl](pyridin-4-ylmethyl)amino}methyl)-7-(4-methoxyphenyl)-4H-chromen-4-one] | 10 to 20 | ≥ 20 | > 2.5 |
